Assay results published in paper PMC11111408, “Concurrent inhibition of oncogenic and wild-type RAS-GTP for cancer therapy” (Nature, 2024).
Several values for one entry are separate records, joined by “and”; a condition that tells them apart may be missing. Equal values may be shown once.

How the values were obtained:
KRAS–RALGDS [1] = molecular target: T1, KRAS–RALGDS (Homo sapiens, UniProt P01116, G12V); test: Cellular nano-BRET, full length RALGDS binding to KRAS G12C, G12D, G12V; assay type: cell-based; conditions: KRAS G12V, in the presence of CYPA, single replicates
T1 construct: expressed in transfected cells; host or cells: U2OS

KRAS–RALGDS [2] = molecular target: T2, KRAS–RALGDS (Homo sapiens, UniProt P01116, G12C); test: as above; assay type: cell-based; conditions: KRAS G12C, in the presence of CYPA, single replicates
T2 construct: expressed in transfected cells; host or cells: U2OS

NRAS^Q61K = NRAS^Q61K (Homo sapiens, UniProt P01111+P62937, Q61K); test: RAS binding affinity of compound-bound CYPA (Kd2), SPR; conditions: steady state SPR, (95% CI)
[3] = test system: Capan-1, SW620, AsPC-1, HPAC, NCI-H358, PSN1, HUPT3, HCT 116, Hs 766T, SK-MEL-30, KU1919, NCI-H1975, A375; test: Proliferation (CTG) in human cancer cell lines; assay type: cell-based
Description: Data points show biological duplicates normalized to vehicle control. […] Data points show biological duplicates normalized to vehicle control from 1 of 2–26 independent experiments. Source Data
Alternatively, cells were seeded in round-bottom ultra-low attachment 96-well plates, centrifuged at 1,000 rpm for 10 min to pellet the cells, and incubated overnight or up to 72 h to allow for 3D spheroid formation. […] Cell viability was determined by CellTiter-Glo 2.0 reagent (2D CTG) (Promega, G9243) or 3D CellTiter-Glo reagent (3D CTG) (Promega, G9683) according to the manufacturer’s protocols. Luminescence was detected using a SpectraMax M5 Plate Reader (Molecular Devices) of Perkin Elmer Enspire. Luminescence signal was normalized to vehicle-treated wells (normalized signal (%) = (luminescence (treated)/mean luminescence (vehicle)) × 100%). […] Data were plotted as log [inhibitor (M)], and a four-parameter sigmoidal concentration response model was fitted to the data to calculate EC50. […] Pa16C MEK1 mutant cells were evaluated by live-cell counting using Calcein AM and a SpectraMax i3X multi-mode detection platform (Molecular Devices). Growth percentages were calculated by normalizing the treated cell counts to their respective untreated cell counts.

KRAS^G13D = KRAS^G13D (Homo sapiens, UniProt P01116+P62937, G13D); test: Cellular RAS–CYPA binding (tri-complex formation), nano-BRET in U2OS cells; assay type: cell-based; conditions: (95% CI)
Description: KRAS4B, or other small GTPases, containing the indicated mutations were cloned in pNLF-N or pHTN plasmids for expression with an N-terminal nanoluciferase or HaloTag fusion, respectively. […] The following day, the cells were collected by Trypsin and reseeded in a white tissue culture-treated 96-well plate in OptiMem phenol red-free medium (Gibco) containing 4% FBS and a 1:1,000 dilution of NanoBRET 618 HaloTag ligand (Promega). For endpoint concentration response curves, vivazine nanoluciferase substrate was added to 1× concentration in OptiMem phenol red-free medium with 4% FBS. Varying concentrations of inhibitor were added and incubated for 1 or 4 h before the nano-BRET signal was measured on a Perkin Elmer Envision plate reader. For kinetic assays, endurazine nanoluciferase substrate was used in place of vivazine, and the plate was placed in a Cytation5 multi-mode reader pre-equilibrated to 37 °C and 5% CO2.

SMILES: CCn1c(-c2cc(N3CCN(C4CC4)CC3)cnc2[C@H](C)OC)c2c3cc(ccc31)-c1csc(n1)C[C@H](NC(=O)[C@H]1[C@@H]3COC[C@@H]31)C(=O)N1CCC[C@H](N1)C(=O)OCC(C)(C)C2 [RMC-7977]
- Cellular nano-BRET of RALGDS (full-length) binding to KRAS (KRAS–RALGDS [1]; RMC-7977 333.333 nM): 11.4911 and 11.1105 and 10.9221 and 11.2754 and 11.3448 and 11.4972
- Cellular nano-BRET of RALGDS (full-length) binding to KRAS (KRAS–RALGDS [1]; RMC-7977 1000.000 nM): 11.0787 and 10.8666 and 11.0137 and 11.1587 and 10.8841 and 10.9076
- Cellular nano-BRET of RALGDS (full-length) binding to KRAS (KRAS–RALGDS [2]; RMC-7977 4.115 nM): 18.1963 and 16.034 and 17.4595 and 15.2439 and 16.9748 and 14.2583
- Cellular nano-BRET of RALGDS (full-length) binding to KRAS (KRAS–RALGDS [2]; RMC-7977 12.346 nM): 13.0313 and 11.9807 and 11.9885 and 11.6119 and 11.6125 and 11.8549
- Cellular nano-BRET of RALGDS (full-length) binding to KRAS (KRAS–RALGDS [2]; RMC-7977 37.037 nM): 11.0793 and 10.028 and 11.2271 and 10.7778 and 11.2352 and 10.211
- Cellular nano-BRET of RALGDS (full-length) binding to KRAS (KRAS–RALGDS [2]; RMC-7977 111.111 nM): 10.2935 and 10.375 and 9.345 and 10.0632 and 10.0122 and 10.2781
- Cellular nano-BRET of RALGDS (full-length) binding to KRAS (KRAS–RALGDS [2]; RMC-7977 333.333 nM): 10.1394 and 10.5924 and 9.785 and 10.0763 and 9.658 and 9.979
- Cellular nano-BRET of RALGDS (full-length) binding to KRAS (KRAS–RALGDS [2]; RMC-7977 1000.000 nM): 10.8628 and 9.92 and 10.139 and 10.0712 and 10.3509 and 9.953
- Kd (NRAS^Q61K): 72.4 nM
- Cell proliferation (CellTiter-Glo) ([3]; ASPC1, RMC-7977 1.52 nM): 68.8907 and 77.7752
- Cell proliferation (CellTiter-Glo) ([3]; ASPC1, RMC-7977 4.57 nM): 54.6049 and 56.084
- Cell proliferation (CellTiter-Glo) ([3]; ASPC1, RMC-7977 13.72 nM): 31.4521 and 36.2763
- Cell proliferation (CellTiter-Glo) ([3]; ASPC1, RMC-7977 41.15 nM): 19.3277 and 20.3014
- Cell proliferation (CellTiter-Glo) ([3]; ASPC1, RMC-7977 123.46 nM): 12.8203 and 13.4559
- Cell proliferation (CellTiter-Glo) ([3]; ASPC1, RMC-7977 370.39 nM): 9.7785 and 11.4734
- Cell proliferation (CellTiter-Glo) ([3]; ASPC1, RMC-7977 1111.14 nM): 8.521 and 9.0438
- Cell proliferation (CellTiter-Glo) ([3]; ASPC1, RMC-7977 3333.41 nM): 6.811 and 10.0312
- Cell proliferation (CellTiter-Glo) ([3]; ASPC1, RMC-7977 10000.00 nM): 5.308 and 5.788
- Cell proliferation (CellTiter-Glo) ([3]; CAPAN1, RMC-7977 1.52 nM): 59.9636 and 63.7997
- Cell proliferation (CellTiter-Glo) ([3]; CAPAN1, RMC-7977 4.57 nM): 35.7372 and 42.3141
- Cell proliferation (CellTiter-Glo) ([3]; CAPAN1, RMC-7977 13.72 nM): 18.382 and 18.5053
- Cell proliferation (CellTiter-Glo) ([3]; CAPAN1, RMC-7977 41.15 nM): 11.8827 and 13.681
- Cell proliferation (CellTiter-Glo) ([3]; CAPAN1, RMC-7977 123.46 nM): 8.811 and 11.6796
- Cell proliferation (CellTiter-Glo) ([3]; CAPAN1, RMC-7977 370.39 nM): 5.4975 and 10.0571
- Cell proliferation (CellTiter-Glo) ([3]; CAPAN1, RMC-7977 1111.14 nM): 6.166 and 6.972
- Cell proliferation (CellTiter-Glo) ([3]; CAPAN1, RMC-7977 3333.41 nM): 4.455 and 5.8786
- Concentration-response, normalized signal (replicate wells) ([3]; HCT116, RMC-7977 4.00 nM): 82.5863 and 97.7262 and 86.8037 and 89.4627 and 85.957 and 97.0725 and 88.0274 and 98.1156 and 87.4457 and 99.4211 and 79.8906 and 84.8325
- Concentration-response, normalized signal (replicate wells) ([3]; HCT116, RMC-7977 36.01 nM): 18.5896 and 19.6721 and 20.3034 and 20.9024 and 39.3935 and 41.5603 and 31.7309 and 32.7207 and 34.8483 and 44.0944 and 29.6731 and 29.9889
- Concentration-response, normalized signal (replicate wells) ([3]; HCT116, RMC-7977 324.09 nM): 2.22 and 2.64 and 1.664 and 2.991 and 5.879 and 6.569 and 5.425 and 6.586 and 5.001 and 5.957 and 2.283 and 3.5458
- Concentration-response, normalized signal (replicate wells) ([3]; HCT116, RMC-7977 972.25 nM): 1.618 and 2.167
- Concentration-response, normalized signal (replicate wells) ([3]; cell line heading above the shown rows, RMC-7977 10000.00 nM): 4.998 and 6.7184
- EC50 (KRAS^G13D): 4.99 nM
